From the NIST ThermoML archive (doi:10.1021/acs.jced.7b00107)
Where “and” joins values, the source holds several entries; their conditions need not be identical. Equal values may be shown once.

Assay: molar heat capacity at constant pressure
Details: 101.33 kPa, Small (less than 1 g) adiabatic calorimetry

Cl.NC12CC3CC(CC(C3)C1)C2 [1-aminoadamantane hydrochloride]
Details | molar heat capacity at constant pressure
5 K, Crystal 3 | 0.585 J/K/mol
5.01 K, Crystal 3 | 0.5801 J/K/mol
5.25 K, Crystal 3 | 0.6835 J/K/mol
5.49 K, Crystal 3 | 0.7946 J/K/mol
5.75 K, Crystal 3 | 0.916 J/K/mol
6 K, Crystal 3 | 1.051 J/K/mol
6.3 K, Crystal 3 | 1.22 J/K/mol
6.62 K, Crystal 3 | 1.42 J/K/mol
6.95 K, Crystal 3 | 1.642 J/K/mol
7.29 K, Crystal 3 | 1.891 J/K/mol
7.64 K, Crystal 3 | 2.153 J/K/mol
7.99 K, Crystal 3 | 2.437 J/K/mol
8.34 K, Crystal 3 | 2.747 J/K/mol
8.7 K, Crystal 3 | 3.078 J/K/mol
9.06 K, Crystal 3 | 3.426 J/K/mol
9.43 K, Crystal 3 | 3.794 J/K/mol
9.79 K, Crystal 3 | 4.174 J/K/mol
10 K, Crystal 3 | 4.396 J/K/mol
10.17 K, Crystal 3 | 4.569 J/K/mol
10.64 K, Crystal 3 | 5.116 J/K/mol
11.22 K, Crystal 3 | 5.781 J/K/mol
11.81 K, Crystal 3 | 6.479 J/K/mol
12.4 K, Crystal 3 | 7.208 J/K/mol
13 K, Crystal 3 | 7.971 J/K/mol
13.6 K, Crystal 3 | 8.754 J/K/mol
14.21 K, Crystal 3 | 9.533 J/K/mol
14.82 K, Crystal 3 | 10.38 J/K/mol
15 K, Crystal 3 | 10.64 J/K/mol
15.54 K, Crystal 3 | 11.36 J/K/mol
16.37 K, Crystal 3 | 12.56 J/K/mol
17.21 K, Crystal 3 | 13.72 J/K/mol
18.05 K, Crystal 3 | 14.85 J/K/mol
18.89 K, Crystal 3 | 15.98 J/K/mol
19.74 K, Crystal 3 | 17.1 J/K/mol
20 K, Crystal 3 | 17.48 J/K/mol
20.86 K, Crystal 3 | 18.62 J/K/mol
22.27 K, Crystal 3 | 20.49 J/K/mol
23.7 K, Crystal 3 | 22.36 J/K/mol
25 K, Crystal 3 | 24 J/K/mol
25.12 K, Crystal 3 | 24.15 J/K/mol
26.55 K, Crystal 3 | 25.89 J/K/mol
27.96 K, Crystal 3 | 27.53 J/K/mol
29.45 K, Crystal 3 | 29.22 J/K/mol
30 K, Crystal 3 | 29.84 J/K/mol
31.06 K, Crystal 3 | 31 J/K/mol
32.82 K, Crystal 3 | 32.84 J/K/mol
34.59 K, Crystal 3 | 34.6 J/K/mol
35 K, Crystal 3 | 34.98 J/K/mol
36.37 K, Crystal 3 | 36.26 J/K/mol
38.14 K, Crystal 3 | 37.9 J/K/mol
39.92 K, Crystal 3 | 39.49 J/K/mol
40 K, Crystal 3 | 39.56 J/K/mol
41.79 K, Crystal 3 | 41.08 J/K/mol
43.77 K, Crystal 3 | 42.73 J/K/mol
45 K, Crystal 3 | 43.74 J/K/mol
45.75 K, Crystal 3 | 44.38 J/K/mol
47.72 K, Crystal 3 | 45.9 J/K/mol
49.71 K, Crystal 3 | 47.41 J/K/mol
50 K, Crystal 3 | 47.63 J/K/mol
51.69 K, Crystal 3 | 48.89 J/K/mol
53.68 K, Crystal 3 | 50.26 J/K/mol
55.67 K, Crystal 3 | 51.64 J/K/mol
57.67 K, Crystal 3 | 52.99 J/K/mol
59.67 K, Crystal 3 | 54.32 J/K/mol
60 K, Crystal 3 | 54.53 J/K/mol
61.67 K, Crystal 3 | 55.65 J/K/mol
63.67 K, Crystal 3 | 56.94 J/K/mol
65.68 K, Crystal 3 | 58.17 J/K/mol
67.69 K, Crystal 3 | 59.45 J/K/mol
69.7 K, Crystal 3 | 60.69 J/K/mol
70 K, Crystal 3 | 60.92 J/K/mol
71.71 K, Crystal 3 | 62 J/K/mol
73.72 K, Crystal 3 | 63.24 J/K/mol
75.74 K, Crystal 3 | 64.48 J/K/mol
77.75 K, Crystal 3 | 65.74 J/K/mol
78.45 K, Crystal 3 | 66.2 J/K/mol
79.78 K, Crystal 3 | 66.97 J/K/mol
80 K, Crystal 3 | 67.11 J/K/mol
80.56 K, Crystal 3 | 67.47 J/K/mol
81.8 K, Crystal 3 | 68.23 J/K/mol
82.48 K, Crystal 3 | 68.62 J/K/mol
83.83 K, Crystal 3 | 69.44 J/K/mol
84.4 K, Crystal 3 | 69.79 J/K/mol
86.32 K, Crystal 3 | 71.01 J/K/mol
88.24 K, Crystal 3 | 72.23 J/K/mol
90 K, Crystal 3 | 73.32 J/K/mol
90.17 K, Crystal 3 | 73.44 J/K/mol
92.09 K, Crystal 3 | 74.67 J/K/mol
94.02 K, Crystal 3 | 75.9 J/K/mol
95.95 K, Crystal 3 | 77.18 J/K/mol
97.89 K, Crystal 3 | 78.44 J/K/mol
99.83 K, Crystal 3 | 79.74 J/K/mol
100 K, Crystal 3 | 79.81 J/K/mol
100.61 K, Crystal 3 | 80.3 J/K/mol
101.77 K, Crystal 3 | 81.04 J/K/mol
102.13 K, Crystal 3 | 81.29 J/K/mol
103.66 K, Crystal 3 | 82.26 J/K/mol
103.71 K, Crystal 3 | 82.35 J/K/mol
105.19 K, Crystal 3 | 83.26 J/K/mol
105.66 K, Crystal 3 | 83.7 J/K/mol
106.71 K, Crystal 3 | 84.46 J/K/mol
107.61 K, Crystal 3 | 85.07 J/K/mol
108.24 K, Crystal 3 | 85.55 J/K/mol
109.57 K, Crystal 3 | 86.53 J/K/mol
109.77 K, Crystal 3 | 86.68 J/K/mol
110 K, Crystal 3 | 86.83 J/K/mol
110.61 K, Crystal 3 | 87.3 J/K/mol
111.3 K, Crystal 3 | 87.82 J/K/mol
111.52 K, Crystal 3 | 88.04 J/K/mol
111.99 K, Crystal 3 | 88.23 J/K/mol
112.83 K, Crystal 3 | 89.22 J/K/mol
113 K, Crystal 3 | 89.28 J/K/mol
113.48 K, Crystal 3 | 89.74 J/K/mol
114.01 K, Crystal 3 | 90.15 J/K/mol
114.36 K, Crystal 3 | 90.6 J/K/mol
115.02 K, Crystal 3 | 91.42 J/K/mol
115.44 K, Crystal 3 | 92 J/K/mol
115.56 K, Crystal 3 | 91.67 J/K/mol
115.89 K, Crystal 3 | 92.64 J/K/mol
116.03 K, Crystal 3 | 92.78 J/K/mol
116.09 K, Crystal 3 | 92.4 J/K/mol
116.58 K, Crystal 3 | 93.36 J/K/mol
117.03 K, Crystal 3 | 94.87 J/K/mol
117.07 K, Crystal 3 | 94.53 J/K/mol
117.39 K, Crystal 3 | 96.19 J/K/mol
117.4 K, Crystal 3 | 96.04 J/K/mol
117.56 K, Crystal 3 | 95.93 J/K/mol
118.03 K, Crystal 3 | 98.29 J/K/mol
118.05 K, Crystal 3 | 97.56 J/K/mol
118.53 K, Crystal 3 | 100.2 J/K/mol
118.9 K, Crystal 3 | 105.3 J/K/mol
119.01 K, Crystal 3 | 104 J/K/mol
119.02 K, Crystal 3 | 105.6 J/K/mol
119.31 K, Crystal 3 | 108.3 J/K/mol
119.48 K, Crystal 3 | 110.1 J/K/mol
119.95 K, Crystal 3 | 112.9 J/K/mol
119.99 K, Crystal 3 | 111.4 J/K/mol
120 K, Crystal 2 | 94.01 J/K/mol
120 K, Crystal 3 | 94.01 J/K/mol
120.37 K, Crystal 2 | 108.5 J/K/mol
120.42 K, Crystal 2 | 108.5 J/K/mol
120.89 K, Crystal 2 | 104.8 J/K/mol
120.95 K, Crystal 2 | 106.2 J/K/mol
121.24 K, Crystal 2 | 112.4 J/K/mol
121.37 K, Crystal 2 | 108.6 J/K/mol
121.81 K, Crystal 2 | 125.5 J/K/mol
121.84 K, Crystal 2 | 120 J/K/mol
121.91 K, Crystal 2 | 126.5 J/K/mol
122.28 K, Crystal 2 | 146.1 J/K/mol
122.69 K, Crystal 2 | 168 J/K/mol
122.76 K, Crystal 2 | 187.7 J/K/mol
123.07 K, Crystal 1 | 165.2 J/K/mol and 227.7 J/K/mol
123.1 K, Crystal 1 | 96.21 J/K/mol
123.1 K, Crystal 2 | 96.21 J/K/mol
123.13 K, Crystal 1 | 176.4 J/K/mol
123.47 K, Crystal 1 | 148 J/K/mol
123.61 K, Crystal 1 | 138.3 J/K/mol
123.92 K, Crystal 1 | 106.3 J/K/mol
124.41 K, Crystal 1 | 99.7 J/K/mol
124.5 K, Crystal 1 | 100.8 J/K/mol
124.56 K, Crystal 1 | 99.57 J/K/mol
124.9 K, Crystal 1 | 99.18 J/K/mol
125.12 K, Crystal 1 | 99.65 J/K/mol
125.39 K, Crystal 1 | 98.8 J/K/mol
125.57 K, Crystal 1 | 98.89 J/K/mol
125.88 K, Crystal 1 | 98.68 J/K/mol
126.03 K, Crystal 1 | 99.11 J/K/mol
126.58 K, Crystal 1 | 99.15 J/K/mol
127.3 K, Crystal 1 | 99.61 J/K/mol
127.57 K, Crystal 1 | 99.64 J/K/mol
129.1 K, Crystal 1 | 100.5 J/K/mol
129.28 K, Crystal 1 | 100.6 J/K/mol
130 K, Crystal 1 | 101 J/K/mol
130.63 K, Crystal 1 | 101.5 J/K/mol
131.26 K, Crystal 1 | 101.8 J/K/mol
132.16 K, Crystal 1 | 102.5 J/K/mol
133.24 K, Crystal 1 | 103.2 J/K/mol
133.7 K, Crystal 1 | 103.5 J/K/mol
135.22 K, Crystal 1 | 104.5 J/K/mol
135.23 K, Crystal 1 | 104.6 J/K/mol
136.76 K, Crystal 1 | 105.6 J/K/mol
137.2 K, Crystal 1 | 105.9 J/K/mol
138.29 K, Crystal 1 | 106.7 J/K/mol
139.19 K, Crystal 1 | 107.3 J/K/mol
139.83 K, Crystal 1 | 107.7 J/K/mol
140 K, Crystal 1 | 107.9 J/K/mol
141.18 K, Crystal 1 | 108.6 J/K/mol
141.36 K, Crystal 1 | 108.7 J/K/mol
142.89 K, Crystal 1 | 109.4 J/K/mol
143.17 K, Crystal 1 | 109.5 J/K/mol
144.42 K, Crystal 1 | 109.9 J/K/mol
145.16 K, Crystal 1 | 110.1 J/K/mol
145.95 K, Crystal 1 | 110.4 J/K/mol
147.16 K, Crystal 1 | 110.9 J/K/mol
147.49 K, Crystal 1 | 111.1 J/K/mol
149.02 K, Crystal 1 | 111.7 J/K/mol
149.15 K, Crystal 1 | 111.8 J/K/mol
150 K, Crystal 1 | 112.2 J/K/mol
150.57 K, Crystal 1 | 112.4 J/K/mol
151.15 K, Crystal 1 | 112.7 J/K/mol
152.11 K, Crystal 1 | 113.3 J/K/mol
153.15 K, Crystal 1 | 113.8 J/K/mol
153.64 K, Crystal 1 | 114.2 J/K/mol
155.14 K, Crystal 1 | 114.9 J/K/mol
155.18 K, Crystal 1 | 114.9 J/K/mol
156.72 K, Crystal 1 | 115.7 J/K/mol
157.14 K, Crystal 1 | 116.1 J/K/mol
158.25 K, Crystal 1 | 116.7 J/K/mol
159.14 K, Crystal 1 | 117.2 J/K/mol
159.79 K, Crystal 1 | 117.6 J/K/mol
160 K, Crystal 1 | 117.7 J/K/mol
161.14 K, Crystal 1 | 118.4 J/K/mol
161.32 K, Crystal 1 | 118.5 J/K/mol
162.86 K, Crystal 1 | 119.5 J/K/mol
163.14 K, Crystal 1 | 119.6 J/K/mol
164.39 K, Crystal 1 | 120.4 J/K/mol
165.15 K, Crystal 1 | 120.8 J/K/mol
165.92 K, Crystal 1 | 121.2 J/K/mol
167.15 K, Crystal 1 | 122 J/K/mol
167.45 K, Crystal 1 | 122.3 J/K/mol
168.98 K, Crystal 1 | 123.2 J/K/mol
169.15 K, Crystal 1 | 123.3 J/K/mol
170 K, Crystal 1 | 123.8 J/K/mol
170.51 K, Crystal 1 | 124.1 J/K/mol
171.16 K, Crystal 1 | 124.6 J/K/mol
172.04 K, Crystal 1 | 125 J/K/mol
173.17 K, Crystal 1 | 125.8 J/K/mol
173.57 K, Crystal 1 | 126 J/K/mol
175.1 K, Crystal 1 | 127 J/K/mol
175.17 K, Crystal 1 | 127 J/K/mol
176.62 K, Crystal 1 | 127.9 J/K/mol
177.18 K, Crystal 1 | 128.3 J/K/mol
178.14 K, Crystal 1 | 128.9 J/K/mol
179.19 K, Crystal 1 | 129.6 J/K/mol
179.67 K, Crystal 1 | 130 J/K/mol
180 K, Crystal 1 | 130.1 J/K/mol
181.19 K, Crystal 1 | 130.9 J/K/mol
181.2 K, Crystal 1 | 130.9 J/K/mol
182.7 K, Crystal 1 | 131.9 J/K/mol
183.21 K, Crystal 1 | 132.2 J/K/mol
184.22 K, Crystal 1 | 132.8 J/K/mol
185.23 K, Crystal 1 | 133.5 J/K/mol
185.74 K, Crystal 1 | 133.8 J/K/mol
187.24 K, Crystal 1 | 134.8 J/K/mol
187.25 K, Crystal 1 | 134.8 J/K/mol
188.76 K, Crystal 1 | 135.8 J/K/mol
189.25 K, Crystal 1 | 136.2 J/K/mol
190 K, Crystal 1 | 136.6 J/K/mol
190.27 K, Crystal 1 | 136.9 J/K/mol
191.27 K, Crystal 1 | 137.4 J/K/mol
191.79 K, Crystal 1 | 137.9 J/K/mol
193.28 K, Crystal 1 | 138.8 J/K/mol
193.3 K, Crystal 1 | 138.9 J/K/mol
194.8 K, Crystal 1 | 139.9 J/K/mol
195.3 K, Crystal 1 | 140.1 J/K/mol
